# Results published in article PMC10427684, “Diversity-oriented synthesis encoded by deoxyoligonucleotides” (Nature Communications, 2023).
# Biological target: T1, glutathione S-transferase (GST), His-tagged (Schistosoma japonicum, UniProt P08515)
# T1 construct: His-tagged GST (Abcam ab89494); also the GST portion of N-His-GST-tagged USP7 (Lys208-Glu560)
# Test: DSF with isolated His-tagged GST (dose-dependent thermal shift), confirmed by SPR
# Format: binding
# Settings: read-out: delta_Tm
# T1 sequence (P08515 2-218): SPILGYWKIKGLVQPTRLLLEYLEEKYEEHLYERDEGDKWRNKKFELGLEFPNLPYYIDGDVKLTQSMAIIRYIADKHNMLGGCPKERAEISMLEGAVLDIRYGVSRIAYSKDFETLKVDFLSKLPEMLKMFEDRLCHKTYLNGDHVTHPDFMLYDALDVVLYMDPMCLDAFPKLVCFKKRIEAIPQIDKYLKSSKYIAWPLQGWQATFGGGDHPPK
row,SMILES,ΔTm at 100 µM
1,"C=CCNc1ncc(C(=O)N2CC[C@H](c3cccc(-c4cc(F)cc(OCC(=O)O)c4)c3)[C@@H]2C(=O)NC)s1 [compound 3, 3]",3.3 °C

# Biological target: T2, Carbonic anhydrase II (CAII), BioVision kit #K473-100 (Homo sapiens, UniProt P00918)
# T2 construct: gene CA2; kit enzyme
# Test: biochemical
# Parameters: CAII esterase activity inhibition kit, absorbance at 405 nm, dose-response
# Settings: not given
# Procedure: Carbonic anhydrase II (CAII) inhibition assays were performed using a commercially available kit (BioVision, #K473-100), following the manufacturer’s protocol. For each assayed DOSEDO compound, 11 concentrations (half-log dilutions from 10 µM to 100 pM) were tested, with three technical replicates performed on each of two separate 384-well µClear® medium-binding, flat-bottom polystyrene microplates (Greiner Bio-One, #82051-294) (n = 6 for each compound concentration); for 53 only, six technical replicates (n = 6) were performed on the same plate for each compound concentration. Each reaction well contained 3 µL of compound (prepared in 10% DMSO, 90% kit buffer), 25.5 µL of enzyme/buffer mix (1.4 µL enzyme, 24.1 µL kit buffer), and 1.5 µL of substrate, for a total volume of 30 µL. Absorbance at 405 nm was read on a Molecular Devices SpectraMax i3x. In addition to the experimental conditions, a DMSO control and a no-enzyme control were each performed with three technical replicates on each plate, except for the experiment with 53, where six technical replicates for each control were performed on the same plate. The average change in absorbance for the no-enzyme control was subtracted from the change in absorbance over the same time interval for each experimental condition and the DMSO control on the same plate. For each concentration of each compound, relative activity was calculated separately for each replicate based on the average change in absorbance for the DMSO control on the same plate. Dose-response curves were fitted and IC50 values and 95% confidence intervals were calculated using GraphPad Prism v9.2.0. Curves were fitted using GraphPad Prism’s log(inhibitor) vs. response-variable slope nonlinear regression equation, with the top asymptote constrained to 100. Outliers were detected and removed via GraphPad Prism’s ROUT method, with a Q-value of 1%. Error bars (only shown if greater than the height of the symbol) represent 95% confidence intervals (Supplementary Fig. 22).
row,IC50,SMILES
1,0.064 µM,"CNC(=O)[C@H]1C[C@H](Oc2cccc(-c3ccc(S(N)(=O)=O)cc3)c2)CN1Cc1cn2c(n1)CCC2 [compound 52, (2R,4S)-1-((6,7-Dihydro-5H-pyrrolo[1,2-a]imidazol-2-yl)methyl)-N-methyl-4-((4'-sulfamoyl-[1,1'-biphenyl]-3-yl)oxy)pyrrolidine-2-carboxamide]"
2,0.279 µM,"CC(=O)N1CC2(CN(Cc3ccc(S(N)(=O)=O)o3)C[C@@H]2c2ccc(-c3ccc(F)c(CN(C)C)c3)cc2)C1 [compound 46, (R)-5-((2-Acetyl-8-(3'-((dimethylamino)methyl)-4'-fluoro-[1,1'-biphenyl]-4-yl)-2,6-diazaspiro[3.4]octan-6-yl)methyl)furan-2-sulfonamide]"
3,0.031 µM,"C[C@H]1CN([C@@H](C)CO)S(=O)(=O)c2ccc(-c3ccc(S(N)(=O)=O)cc3)cc2O[C@H]1CN(C)C(=O)c1cnoc1-c1ccco1 [compound 57, 5-(Furan-2-yl)-N-(((4S,5R)-2-((S)-1-hydroxypropan-2-yl)-4-methyl-1,1-dioxido-8-(4-sulfamoylphenyl)-2,3,4,5-tetrahydrobenzo[b][1,4,5]oxathiazocin-5-yl)methyl)-N-methylisoxazole-4-carboxamide]"
4,0.016 µM,"C[C@@H]1CN([C@@H](C)CO)S(=O)(=O)c2ccc(-c3ccc(S(N)(=O)=O)cc3)cc2O[C@H]1CN(C)C(=O)c1cnoc1-c1ccco1 [compound 59, 5-(Furan-2-yl)-N-(((4R,5R)-2-((S)-1-hydroxypropan-2-yl)-4-methyl-1,1-dioxido-8-(4-sulfamoylphenyl)-2,3,4,5-tetrahydrobenzo[b][1,4,5]oxathiazocin-5-yl)methyl)-N-methylisoxazole-4-carboxamide]"
5,> 10 µM,"CC(=O)N1C[C@H](c2ccc(-c3cccc(S(N)(=O)=O)c3)cc2)C2(C1)CN(C(=O)c1nc(C)n3c1CCCC3)C2 [compound 53, (R)-4'-(6-Acetyl-2-(3-methyl-5,6,7,8-tetrahydroimidazo[1,5-a]pyridine-1-carbonyl)-2,6-diazaspiro[3.4]octan-8-yl)-[1,1'-biphenyl]-3-sulfonamide]"
6,0.017 µM,"C[C@H](CO)N1C[C@H](C)[C@@H](CN(C)C(=O)c2coc(S(C)(=O)=O)c2)Oc2cc(-c3ccc(S(N)(=O)=O)cc3)ccc2S1(=O)=O [compound 58, N-(((4S,5S)-2-((R)-1-Hydroxypropan-2-yl)-4-methyl-1,1-dioxido-8-(4-sulfamoylphenyl)-2,3,4,5-tetrahydrobenzo[b][1,4,5]oxathiazocin-5-yl)methyl)-N-methyl-5-(methylsulfonyl)furan-3-carboxamide]"
7,0.034 µM,"CC(=O)N1C[C@@H](c2ccc(-c3ccc(S(N)(=O)=O)cc3)cc2)C2(C1)CN(C(=O)C(C)Oc1cccc(C#N)c1)C2 (stereo partly drawn) [compound 54, 4'-((8S)-6-Acetyl-2-(2-(3-cyanophenoxy)propanoyl)-2,6-diazaspiro[3.4]octan-8-yl)-[1,1'-biphenyl]-4-sulfonamide]"
8,0.026 µM,"CNC(=O)[C@H]1C[C@@H](Oc2cccc(C3=CCNCC3)c2)CN1S(=O)(=O)c1ccc(S(N)(=O)=O)cc1 [compound 45, (2R,4R)-N-Methyl-1-((4-sulfamoylphenyl)sulfonyl)-4-(3-(1,2,3,6-tetrahydropyridin-4-yl)phenoxy)pyrrolidine-2-carboxamide]"
